From US8722072B2, “Acaricidal and/or insecticidal active ingredient combinations” (priority 2010, dated 2014)

What was measured:
Assay type in all cases: in vivo
[1] = tested on: two-spotted spider mite (Tetranychus urticae); assay: Example 8: Tetranychus urticae - test on cotton; settings: cotton plants, spray
Description: Tetranychus urticae—Test on Cotton
• Solvent: 7 parts by weight of dimethylformamide • Emulsifier: 2 parts by weight of alkylaryl polyglycol ether
(§1) An appropriate preparation of active ingredient is prepared by mixing 1 part by weight of active ingredient with the stated amounts of solvent and emulsifier and diluting the concentrate with emulsifier-containing water to the desired concentration.
Cotton plants (Gossypium hirsutum) infected with the two-spotted spider mite (Tetranychus urticae) are treated by being sprayed with the preparation of active ingredient in the desired concentration.
After the desired time, a determination is made of the destruction in %. 100% here means that all of the mites have been killed; 0% means that no mites have been killed. The destruction figures ascertained are calculated by the Colby formula.

Tetranychus urticae [2] = assay: Example 3: field test on tomatoes against Tetranychus urticae; settings: adults on leaves, 3 days after treatment
Description: In plots measuring approximately 6 m^2, tomatoes of the cultivar “Leader” are treated in three replications against Tetranychus urticae. Application takes place using a back-mounted spray (4.5 bar). […] The water application rate is 1000 l/ha.
Evaluation is made 3 days after treatment, by scoring the destruction of the adults on the leaves.

Hemitarsonemus latus = assay: Example 7: field test on bell peppers against Hemitarsonemus latus; settings: adults on leaves, 2 days after treatment
Description: In plots measuring approximately 6 m^2, bell peppers of the cultivar “California Wonder” (growth stage 75) are treated in three replications against Hemitarsonemus latus. Application takes place using a sprayer at 2.5 bar pressure. […] The water application rate is 300 l/ha.
Evaluation is made 2 days after treatment, by scoring the destruction of the adults on the leaves.

Tetranychus urticae [3] = assay: Example 4: field test on cotton plants against Tetranychus urticae; settings: population on leaves, 13 days after treatment
Description: In plots measuring approximately 15 m^2, cotton plants of the cultivar “BRS Aroeira” with a height of approximately 80 cm are treated in three replications against Tetranychus urticae. Application takes place using a spray at 2.5 bar. […] The water application rate is 200 l/ha.
Evaluation is made 13 days after treatment, by scoring the destruction of the population on the leaves.

[4] = tested on: larvae of the seven-spotted ladybird (Coccinella septempunctata); assay: Example 13: Coccinella septempunctata larvae - test on plums (beneficial species); settings: plum leaves, spray
Description: Coccinella septempunctata/Larvae—Test on Plums
An appropriate solution for application is prepared by diluting the respective formulation to the desired concentration.
Plum leaves colonized by larvae of the seven-spotted ladybird (Coccinella septempunctata) are treated by being sprayed with the application solution at the desired concentration.
After the desired time, the destruction is determined in %. 100% here means that all of the ladybird larvae have been killed; 0% means that no ladybird larvae have been killed. The destruction figures ascertained are calculated by the Colby formula.

Tetranychus urticae [5] = assay: Example 5: field test on roses (Freedom) against Tetranychus urticae; settings: population on leaves, 1 day after treatment
Description: In plots measuring approximately 14 m^2, roses (growth stage 46) of the cultivar “Freedom” in double rows are treated in three replications against Tetranychus urticae. Application takes place using a back-mounted spray. In this example, the mixture of the active ingredients Oberon, Example (I), and abamectin, Example (VI), is tested against the commercial standards abamectin (018 EC) and Oberon (240 SC) at the stated application rates and in the stated mixing ratios. The water application rate is 1000 l/ha.
Evaluation is made 1 day after treatment, by scoring the destruction of the population on the leaves.

[6] = tested on: whitefly (Bemisia tabaci); assay: Example 10: Bemisia tabaci - test on cotton; settings: cotton plants, spray
Description: Bemisia tabaci—Test on Cotton
(§2) • Solvent: 7 parts by weight of dimethylformamide • Emulsifer: 2 parts by weight of alkylaryl polyglycol ether
as §1
Cotton plants (Gossypium hirsutum) infested with whitefly (Bemisia tabaci) are treated by being sprayed with the preparation of active ingredient at the desired concentration.
(§3) After the desired time, the destruction is determined in %. 100% here means that all of the whitefly have been killed; 0% means that no whitefly have been killed. The destruction figures ascertained are calculated by the Colby formula.

[7] = tested on: whitefly (Bemisia tabaci); assay: Example 11: Bemisia tabaci - test on cabbage; settings: cabbage plants, spray
Description: Bemisia tabaci—Test on Cabbage
as §2, §1
Cabbage plants (Brassica oleracea) infested with whitefly (Bemisia tabaci) are treated by being sprayed with the preparation of active ingredient at the desired concentration.
as §3

[8] = tested on: Frankliniella occidentalis; assay: Example 9: field test on bell peppers against Frankliniella occidentalis; settings: for Destruction (% Abbott) 7 days: adults in the flowers, 7 days after the second treatment; for Destruction (% Abbott) 14 days: mixed population in the flowers, 14 days after the second treatment
Description: In plots measuring approximately 10 m^2, bell peppers of the cultivar “Italiano verde” are treated in three replications against Frankliniella occidentalis. Application is made using a back-mounted spray (10 bar). […] The water application rate is 750 l/ha. Two applications are carried out, at an interval of 7 days.
Evaluation is made 7 days after the second treatment, by scoring the destruction of the adults in the flowers.
Evaluation is made 14 days after the second treatment, by scoring the destruction of the mixed population in the flowers.

Tetranychus urticae [9] = assay: Example 6: field test on aubergines (Suqi qie) against Tetranychus urticae, ready-prepared mixture 20:1; settings: for Destruction (% Abbott) 21 days (eggs) / Destruction (% Abbott) 21 days (males) / Destruction (% Abbott) 21 days (population): 21 days after treatment; for Destruction (% Abbott) 1 day: males on leaves, 1 day after treatment; for Destruction (% Abbott) 21 days (population): total population
Description: In plots measuring approximately 8 m^2, aubergines (growth stage 15) of the cultivar “Suqi qie” are treated in three replications against Tetranychus urticae. Application takes place using a back-mounted sprayer. […] The water application rate is 450 l/ha.
Evaluation is made 1 day after treatment, by scoring the destruction of the males on the leaves.
A further evaluation is made 21 days after treatment, by scoring the destruction of the eggs, the destruction of the males, and the total population on the leaves.

Tetranychus urticae [10] = assay: Example 2: field test on roses (Blizard) against Tetranychus urticae; settings: adults on leaves, 3 days after treatment
Description: In plots measuring approximately 6 m^2, roses of the cultivar “Blizard” with an age of approximately 3 years are treated in three replications against Tetranychus urticae. Application takes place using a back-mounted spray (3.5 bar). […] The water application rate is 1320 l/ha. Evaluation is made 3 days after treatment, by counting the adults on the leaves/square inch. Subsequently, the activity is calculated as a percentage by the method of Henderson and Tilton.

Tetranychus urticae [11] = assay: Example 1: field test on aubergines against Tetranychus urticae; settings: for Destruction (% Abbott) 1 day: 1 day after treatment; for Destruction (% Abbott) 55 days: 55 days after treatment; for Destruction (% Abbott) 45 days: 45 days after treatment
Description: In plots measuring approximately 14 m^2, aubergines (around 11 weeks after planting out) of the cultivar “Heilongchangqie” are treated in three replications against Tetranychus urticae. Application takes place using a sprayer. […] The water application rate is 450 l/ha.
Evaluation is made 1 day and 55 days after treatment, by scoring the destruction of the eggs on the leaves.
A further evaluation is made 45 and 55 days after treatment, by scoring the destruction of the nymphs on the leaves.

[12] = nymphs on leaves, 120 g a.i./ha

## Cc1cc(C)c(C2=C(OC(=O)CC(C)(C)C)C3(CCCC3)OC2=O)c(C)c1 [Oberon (I), Spiromesifen]
[1]; 100 g ai/ha
  Destruction in % after 3d: 30%
Tetranychus urticae [2]; 120 g a.i./ha
  Destruction (% Abbott) 3 days: 25.0 % Abbott
Hemitarsonemus latus; 120 g a.i./ha
  Destruction (% Abbott) 2 days: 50 % Abbott
Tetranychus urticae [3]; 120 g a.i./ha
  Destruction (% Abbott) 13 days: 58.5 % Abbott
[4]; 60 g ai/ha
  Destruction in % after 3d: 3%
[4]; 120 g ai/ha
  Destruction in % after 3d: 10%
Tetranychus urticae [5]; 120 g a.i./ha
  Activity (% Abbott) 1 day: 32.4 % Abbott
[6]; 120 g ai/ha
  Destruction in % after 7d: 70%
[7]; 150 g ai/ha
  Destruction in % after 9d: 55%
[8]; 105 g a.i./ha
  Destruction (% Abbott) 7 days: 3.3 % Abbott
  Destruction (% Abbott) 14 days: 0 % Abbott
[8]; 210 g a.i./ha
  Destruction (% Abbott) 14 days: 0 % Abbott
Tetranychus urticae [9]; 120 g a.i./ha
  Destruction (% Abbott) 21 days (eggs): 0 % Abbott
  Destruction (% Abbott) 1 day: 0 % Abbott
  Destruction (% Abbott) 21 days (males): 5 % Abbott
  Destruction (% Abbott) 21 days (population): 1.9 % Abbott
Tetranychus urticae [10]; 105 g a.i./ha
  Activity (% H. + T.) 3 days: 32.2 % H. + T.
Tetranychus urticae [10]; 210 g a.i./ha
  Activity (% H. + T.) 3 days: 40.7 % H. + T.
Tetranychus urticae [11]; eggs on leaves, 120 g a.i./ha
  Destruction (% Abbott) 1 day: 26.7 % Abbott
  Destruction (% Abbott) 55 days: 0 % Abbott
Tetranychus urticae [11]; [12]
  Destruction (% Abbott) 45 days: 14.8 % Abbott
  Destruction (% Abbott) 55 days: 24.1 % Abbott

## abamectin [Abamectin (VI)]
[1]; 4 g ai/ha
  Destruction in % after 3d: 10%
Tetranychus urticae [2]; 10 g a.i./ha
  Destruction (% Abbott) 3 days: 45.8 % Abbott
Hemitarsonemus latus; 10 g a.i./ha
  Destruction (% Abbott) 2 days: 0 % Abbott
Tetranychus urticae [3]; 7.2 g a.i./ha
  Destruction (% Abbott) 13 days: 16.5 % Abbott
[4]; 3 g ai/ha
  Destruction in % after 3d: 63%
[4]; 6 g ai/ha
  Destruction in % after 3d: 100%
Tetranychus urticae [5]; 6 g a.i./ha
  Activity (% Abbott) 1 day: 27 % Abbott
[6]; 6 g ai/ha
  Destruction in % after 7d: 0%
[7]; 6 g ai/ha
  Destruction in % after 9d: 0%
[7]; 15 g ai/ha
  Destruction in % after 9d: 0%
[8]; 10.5 g a.i./ha
  Destruction (% Abbott) 7 days: 0 % Abbott
  Destruction (% Abbott) 14 days: 0 % Abbott
[8]; 21 g a.i./ha
  Destruction (% Abbott) 14 days: 2.0 % Abbott
Tetranychus urticae [9]; 10 g a.i./ha
  Destruction (% Abbott) 21 days (eggs): 0 % Abbott
  Destruction (% Abbott) 1 day: 33.3 % Abbott
  Destruction (% Abbott) 21 days (males): 45 % Abbott
  Destruction (% Abbott) 21 days (population): 47.6 % Abbott
Tetranychus urticae [10]; 10.5 g a.i./ha
  Activity (% H. + T.) 3 days: 0 % H. + T.
Tetranychus urticae [10]; 21 g a.i./ha
  Activity (% H. + T.) 3 days: 0 % H. + T.
Tetranychus urticae [11]; eggs on leaves, 10 g a.i./ha
  Destruction (% Abbott) 1 day: 19.8 % Abbott
  Destruction (% Abbott) 55 days: 0 % Abbott
Tetranychus urticae [11]; nymphs on leaves, 10 g a.i./ha
  Destruction (% Abbott) 45 days: 0 % Abbott
  Destruction (% Abbott) 55 days: 0 % Abbott
